Test [1] relates to intracellular Ca^2+. In words: Calcium influx study, intracellular Ca^2+ levels by Fura-2 AM assay. The class given is cell-based. The conditions noted are these: amiloride HCl 100 μM 60 mins, thapsigargin 100 nM 25 mins, BAPTA-AM 10 μM 25 mins, in combinations; FIG. 9a iv, v, vi. The procedure: The data are represented in terms of the mean value±the standard error over quadruplicate runs, and the asterisks *, **, *** and **** indicate statistically significant differences with p<0:05, p<0:01, p<0:001 and p<0:0001, respectively.
The cells were seeded at a density of 0:05×10^6 cells per well in a 24-well glass-bottom plate and incubated at overnight in a humidified incubator. After incubation, they were treated with combinations of amiloride HCl (100 μM, for 60 mins)—a Ca^2+ ion channel blocker, thapsigargin (100 nM, for 25 mins)—an endoplasmic reticulum calcium ion inhibitor, and, BAPTA-AM (10 μM, for 25 mins)—a membrane permeable calcium chelator that removes intracellular calcium, following which they were incubated in the presence of 10 μM Fura2-AM for 60 mins at 37° C. to measure the intracellular Ca^2+ levels. The cells were then washed to remove the extracellular dye and replenished with DMEM, taking care to protect them from exposure to light. The media devoid of calcium from the inhibitor-treated cells was subsequently replaced with media containing calcium, and, where appropriate, exposed to the SRBW insonation (i.e. acoustic stimulation). Changes in the fluorescence intensity were measured with a spectrophotometric plate reader (CLARIOstar®, BMG LabTech, Mornington, VIC, Australia).

In test [2] the test system is cells. The conditions noted are these: within 2 to 72 hrs; dose dependent; cited from earlier work.

Where a name gives a salt, the structure may show the parent alone.

Take `N=C(N)NC(=O)c1nc(Cl)c(N)nc1N` [amiloride HCl, amiloride hydrochloride]: the “effect on intracellular calcium store” value in test [1] was “deplete the intracellular calcium store”.
For the molecule `C[C@H](CCC(=O)O)C[C@H](C)C[C@H](C)C(=O)/C=C(\O)[C@H](C)C[C@H](C)C/C=C/[C@@H](C)[C@@H](O)[C@@H](C)[C@@H](O)C[C@@H]1CC[C@@](C)([C@H]2CC[C@@](C)([C@@H](C)O)O2)O1` [ionomycin], the enhancing exosome yield entry in test [2] is recorded as “two-and-one-half-fold”.
As to `C/C=C(/C)C(=O)O[C@H]1C(C)=C2[C@H]([C@@H]1OC(=O)CCCCCCC)[C@@](C)(OC(C)=O)C[C@H](OC(=O)CCC)[C@@]1(O)[C@H]2OC(=O)[C@@]1(C)O` [thapsigargin], the “effect on intracellular calcium store” value in test [1] is recorded as “deplete the intracellular calcium store”.
Take calcium phosphate: the enhancing exosome yield entry in test [2] is “two-and-one-half-fold”.
